# Patent US4535075A, “Dithiolane derivative, process for producing the same and use thereof” (Nihon Nohyaku Co., Ltd., priority 1982, dated 1985)
# System: liver damage induced by carbon tetrachloride
# Experiment: Protective (Controlling) effect on liver damage induced by carbon tetrachloride
# Assay type: in vivo, mice (dd strain)
# Settings: for p-GPT: CCl4 alone >2,100; for Liver Damage Index: average of 5 mice, CCl4 alone 5.0
# Description: Protective (Controlling) Effect on liver damage induced by carbon tetrachloride.
# Carbon tetrachloride administration induces centrilobular necrosis of the liver associated with loss of diphosphopyridine nucleotide, hepatic glycogen, coenzyme A and increase in neutral fat. Release of several enzymes from the hepatocytes, and increases of enzyme activities in the plasma are recognized as the result of the damage of the liver.
# A suitable means for evaluating the degree induced by carbon tetrachloride or the degree of protection afforded by drugs is to study the plasma glutamic-pyruvic transaminase (p-GPT) activity. […]
# After 6 hours, carbon tetrachloride was administered orally 0.05 ml/kg.
# Animals were killed 24 hours after carbon tetrachloride administration, and the liver was grossly observed.
# The plasma was obtained by centrifugation. Activity of p-GPT were determined by the method of Reitman and Frankel and expressed in Karmen units.
# Score for liver damage index was as follows:
# 1 Each figure indicated average of 5 mice.
# [1] = 250 mg/kg p.o., CCl4 0.05 ml/kg after 6 h, 24 h
# [2] = 250 mg/kg p.o., CCl4 0.05 ml/kg after 6 h, 24 h, 0 Normal, 2 Slightly recognized, 4 Clearly observable damage, 6 Heavy damage
Structure (SMILES),p-GPT [1],Liver Damage Index [2],"Liver Damage Index (administered at 100 mg/kg p.o., scale 0 Normal to 6 Heavy damage)",p-GPT (administered at 100 mg/kg p.o.)
COC(=O)C(C#N)=C1SC(O)C(O)S1 (stereo not shown) [Compound 24],152 Karmen units,1.0,,
CCOC(=O)C(C#N)=C1SC(O)C(O)S1 (stereo not shown) [Compound 25],,2.0,,
CCCOC(=O)C(C#N)=C1SC(O)C(O)S1 (stereo not shown) [Compound 26],24 Karmen units,0.0,,
"CC(C)OC(=O)C(C#N)=C1SC(O)C(O)S1 (stereo not shown) [Compound 27, isopropyl 4,5-dihydroxy-1,3-dithiolan-2-ylidenecyanoacetate]",23 Karmen units,0.2,,
CCCCOC(=O)C(C#N)=C1SC(O)C(O)S1 (stereo not shown) [Compound 28],80 Karmen units,0.4,,
CC(C)COC(=O)C(C#N)=C1SC(O)C(O)S1 (stereo not shown) [Compound 29],175 Karmen units,1.0,,
CCCCCOC(=O)C(C#N)=C1SC(O)C(O)S1 (stereo not shown) [Compound 30],116 Karmen units,0.6,,
CC(C)CCOC(=O)C(C#N)=C1SC(O)C(O)S1 (stereo not shown) [Compound 31],105 Karmen units,0.6,,
CCCCCCOC(=O)C(C#N)=C1SC(O)C(O)S1 (stereo not shown) [Compound 33],93 Karmen units,0.8,,
CCOC(=O)C(C(=O)CC)=C1SC(O)C(O)S1 (stereo not shown) [Compound 49],23 Karmen units,0.4,,
CCOC(=O)C(C(=O)C(C)C)=C1SC(O)C(O)S1 (stereo not shown) [Compound 51],172 Karmen units,1.6,,
CCOC(=O)C(C(=O)CC(C)C)=C1SC(O)C(O)S1 (stereo not shown) [Compound 53],94 Karmen units,0.8,,
CCCCCCC(=O)C(C(=O)OCC)=C1SC(O)C(O)S1 (stereo not shown) [Compound 54],188 Karmen units,2.6,,
CCOC(=O)C(C(=O)Cc1ccccc1)=C1SC(O)C(O)S1 (stereo not shown) [Compound 55],105 Karmen units,1.8,,
CCOC(=O)C(C(=O)c1ccccc1)=C1SC(O)C(O)S1 (stereo not shown) [Compound 56],,,4.0,> 1418 Karmen units
"CC(=O)OC1SC(=C(C(=O)OC(C)C)C(=O)OC(C)C)SC1O (stereo not shown) [Compound 57, diisopropyl 4-hydroxy-5-methyl carbonyloxy-1,3-dithiolan-2-ylidenemalonate]",262.0 Karmen units,1.0,,
CC(=O)OC1SC(=C(C(=O)OC(C)C)C(=O)OC(C)C)SC1OC(C)=O (stereo not shown) [Compound 58],42.0 Karmen units,1.0,,
CCCOC(=O)C(C(=O)OCCC)=C1SC(OC(C)=O)C(OC(C)=O)S1 (stereo not shown) [Compound 59],40.9 Karmen units,0.4,,
CCC(C)OC(=O)C(C(=O)OC(C)CC)=C1SC(OC(C)=O)C(OC(C)=O)S1 (stereo not shown) [Compound 60],203.0 Karmen units,0,,

Structure (SMILES),p-GPT [1],Liver Damage Index [2],"Liver Damage Index (administered at 100 mg/kg p.o., scale 0 Normal to 6 Heavy damage)",p-GPT (administered at 100 mg/kg p.o.)
CCCOC(=O)C(C(C)=O)=C1SC(OC(C)=O)C(OC(C)=O)S1 (stereo not shown) [Compound 61],1260 Karmen units,0.8,,
CCCOC(=O)C(C(=O)OCCC)=C1SC(OC(=O)C(C)(C)C)C(OC(=O)C(C)(C)C)S1 (stereo not shown) [Compound 62],223.2 Karmen units,1.2,,
CCCOC(=O)C(C(C)=O)=C1SC(OC(=O)C(C)(C)C)C(OC(=O)C(C)(C)C)S1 (stereo not shown) [Compound 63],402.6 Karmen units,1.8,,
"CCCOC(=O)C(C(=O)OCCC)=C1SC(OC(=O)N(C)C)C(OC(=O)N(C)C)S1 (stereo not shown) [Compound 64, di-n-propyl 4,5-bis (N,N-dimethylcarbamoyloxy)-1,3-dithiolane-2-ylidenemalonate]",,3.4,,
CCCOC(=O)C(C(C)=O)=C1SC(OC(=O)N(C)C)C(OC(=O)N(C)C)S1 (stereo not shown) [Compound 65],498.7 Karmen units,1.6,,
CCCOC(=O)C(C(=O)OCCC)=C1SC(OC(=O)OCC)C(OC(=O)OCC)S1 (stereo not shown) [Compound 66],53.8 Karmen units,0.2,,
CCCOC(=O)C(C(C)=O)=C1SC(OC(=O)OCC)C(OC(=O)OCC)S1 (stereo not shown) [Compound 67],127.7 Karmen units,0.8,,
CCCOC(=O)C(C(=O)OCCC)=C1SC(OC(=O)CCC(=O)O)C(OC(=O)CCC(=O)O)S1 (stereo not shown) [Compound 68],,2.0,,
CC(C)OC(=O)C(C(=O)OC(C)C)=C1SC(OC(=O)CCC(=O)O)C(OC(=O)CCC(=O)O)S1 (stereo not shown) [Compound 69],,2.2,,
COC(=O)C(C(=O)OC)=C1SC(OC(=O)CCC(=O)O)C(OC(=O)CCC(=O)O)S1 (stereo not shown) [Compound 70],121.0 Karmen units,1.2,,
"CCC(C)OC(=O)C(C(=O)OC(C)CC)=C1SC(OC(=O)CCC(=O)O)C(OC(=O)CCC(=O)O)S1 (stereo not shown) [Compound 71, di-sec-butyl 4,5-bis(2'-carboxyethylcarbonyloxy)-1,3-dithiolan-2-ylidenemalonate]",,2.2,,
COC(=O)C(C(=O)OC)=C1SC2OC(=O)OC2S1 (stereo not shown) [Compound 72],32.3 Karmen units,0,,
CCOC(=O)C(C(=O)OCC)=C1SC2OC(=O)OC2S1 (stereo not shown) [Compound 73],75.1 Karmen units,0.8,,
CCCOC(=O)C(C(=O)OCCC)=C1SC2OC(=O)OC2S1 (stereo not shown) [Compound 74],38.8 Karmen units,0,,
CC(C)OC(=O)C(C(=O)OC(C)C)=C1SC2OC(=O)OC2S1 (stereo not shown) [Compound 75],19.9 Karmen units,0.2,,
CCCCOC(=O)C(C(=O)OCCCC)=C1SC2OC(=O)OC2S1 (stereo not shown) [Compound 76],84.8 Karmen units,0.6,,
CC(C)COC(=O)C(C(=O)OCC(C)C)=C1SC2OC(=O)OC2S1 (stereo not shown) [Compound 77],21.2 Karmen units,0.2,,
CCC(C)OC(=O)C(C(=O)OC(C)CC)=C1SC2OC(=O)OC2S1 (stereo not shown) [Compound 78],96.0 Karmen units,0,,
CC(C)(C)OC(=O)C(C(=O)OC(C)(C)C)=C1SC2OC(=O)OC2S1 (stereo not shown) [Compound 79],66.0 Karmen units,0.8,,

Structure (SMILES),p-GPT [1],Liver Damage Index [2],"Liver Damage Index (administered at 100 mg/kg p.o., scale 0 Normal to 6 Heavy damage)",p-GPT (administered at 100 mg/kg p.o.)
CCCCCOC(=O)C(C(=O)OCCCCC)=C1SC2OC(=O)OC2S1 (stereo not shown) [Compound 80],71.1 Karmen units,0.4,,
CC(C)CCOC(=O)C(C(=O)OCCC(C)C)=C1SC2OC(=O)OC2S1 (stereo not shown) [Compound 81],108.1 Karmen units,1.2,,
O=C1OC2SC(=C(C(=O)OC3CCCCC3)C(=O)OC3CCCCC3)SC2O1 (stereo not shown) [Compound 82],159.7 Karmen units,0.4,,
O=C1OC2SC(=C(C(=O)OCc3ccccc3)C(=O)OCc3ccccc3)SC2O1 (stereo not shown) [Compound 83],105.5 Karmen units,1.2,,
C=CCOC(=O)C(C(=O)OCC=C)=C1SC2OC(=O)OC2S1 (stereo not shown) [Compound 84],13.9 Karmen units,0,,
C#CCOC(=O)C(C(=O)OCC#C)=C1SC2OC(=O)OC2S1 (stereo not shown) [Compound 85],30.3 Karmen units,0,,
CC(C)COC(=O)C(C(=O)OC(C)C)=C1SC2OC(=O)OC2S1 (stereo not shown) [Compound 86],> 436.4 Karmen units,0.6,,
COC(=O)C(C(C)=O)=C1SC2OC(=O)OC2S1 (stereo not shown) [Compound 87],45.7 Karmen units,0.6,,
CCOC(=O)C(C(C)=O)=C1SC2OC(=O)OC2S1 (stereo not shown) [Compound 88],211.6 Karmen units,1.4,,
CC(=O)C(C(=O)OC(C)C)=C1SC2OC(=O)OC2S1 (stereo not shown) [Compound 89],26.3 Karmen units,0.4,,
CCCOC(=O)C(C(C)=O)=C1SC2OC(=O)OC2S1 (stereo not shown) [Compound 90],23.2 Karmen units,0.3,,
CCCCOC(=O)C(C(C)=O)=C1SC2OC(=O)OC2S1 (stereo not shown) [Compound 91],27.9 Karmen units,0.8,,
CC(=O)C(C(=O)OCC(C)C)=C1SC2OC(=O)OC2S1 (stereo not shown) [Compound 92],29.4 Karmen units,0.8,,
"CC(=O)C(C(=O)OC(C)(C)C)=C1SC2OC(=O)OC2S1 (stereo not shown) [Compound 94, 7-(methylcarbonyl-tert-butoxycarbonyl)methylene-3-oxo-2,4-dioxa-6,8-dithiabicyclo[3,3,0]octane]",26.5 Karmen units,0.8,,
CCCCCOC(=O)C(C(C)=O)=C1SC2OC(=O)OC2S1 (stereo not shown) [Compound 95],28.2 Karmen units,0.8,,
CC(=O)C(C(=O)OCCC(C)C)=C1SC2OC(=O)OC2S1 (stereo not shown) [Compound 96],15.4 Karmen units,0,,
C=CCOC(=O)C(C(C)=O)=C1SC2OC(=O)OC2S1 (stereo not shown) [Compound 98],16.9 Karmen units,0,,
C#CCOC(=O)C(C(C)=O)=C1SC2OC(=O)OC2S1 (stereo not shown) [Compound 99],18.4 Karmen units,0,,
CCCC(=O)C(C(=O)OCC)=C1SC2OC(=O)OC2S1 (stereo not shown) [Compound 101],20.0 Karmen units,0.2,,
